From patent US7834023B2 (Portola Pharmaceuticals, Inc., priority 2006, dated 2010)
pIC50: −log10 of the molar value.

Columns and labels:
P2Y12 receptor = target: T1, P2Y12 receptor (Homo sapiens, UniProt Q9H244); experiment: platelet ADP receptor binding assay (ARB): inhibition of [3H]2-MeS-ADP binding to platelets; conditions: [3H]2-MeS-ADP binding to apyrase-washed human platelets
T1 construct: endogenous in cells; host or cells: human platelets (outdated from blood banks or fresh), apyrase-washed, whole
Method in brief: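 Apyrase-washed human platelets (1×10^8 per well) were preincubated 5 min with serial compound dilutions in Hepes-Tyrode's/0.1% BSA/0.6% DMSO, then incubated 15 min at room temperature with 1 nM [3H]2-MeS-ADP. Filter-bound radioactivity gave specific binding (nonspecific: 10 μM 2-MeS-ADP), and IC50s came from non-linear regression.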

[1] = tested on: human platelet-rich plasma (PRP); experiment: PRP assay: inhibition of ADP-mediated platelet aggregation in vitro; assay type: cell-based; conditions: Homo sapiens, Platelet, ADP-induced aggregation
Description: The effect of testing the compound according to the invention on ADP-induced human platelet aggregation was assessed in a 96-well microtiter assay (see generally the procedures in Jantzen, H. M. et al. (1999) Thromb. Hemost. 81:111-117) or standard cuvette light transmittance aggregometry using either human platelet-rich plasma (PRP) or human washed platelets.
For preparation of human platelet-rich plasma for aggregation assays, human venous blood was collected from healthy, drug-free volunteers into 0.38% sodium citrate (0.013 M, pH 7.0 final). Platelet-rich plasma (PRP) is prepared by centrifugation of whole blood at 160×g for 20 minutes at room temperature. The PRP layer is removed, transferred to a new tube, and the platelet count is adjusted, if necessary, to achieve a platelet concentration of ˜3×10^8 platelets/ml using platelet-poor plasma (PPP). PPP is prepared by centrifugation of the remaining blood sample (after removal of PRP) for 20 minutes at 800×g. This preparation of PRP can subsequently be used for aggregation assays in either a 96-well plate or standard cuvette aggregometry.
For cuvette light transmittance aggregation assays, serial dilutions (1:3) of test compounds were prepared in 100% DMSO in a 96 well V-bottom plate (final DMSO concentration in the cuvette was 0.6%). The test compound (3 μl of serial dilutions in DMSO) was preincubated with PRP for 30-45 seconds prior to initiation of aggregation reactions, which were performed in a ChronoLog aggregometer by addition of agonist (5 or 10 μM ADP) to 490 μL of PRP at 37° C. In some cases, light transmittance aggregometry was performed using 490 μL of washed platelets (prepared as described above) at 37° C., and aggregation was initiated by addition of 5 μM ADP and 0.5 mg/ml human fibrinogen (American Diagnostics, Inc., Greenwich, Conn.). The aggregation reaction is recorded for ˜5 min, and maximum extent of aggregation is determined by the difference in extent of aggregation at baseline, compared to the maximum aggregation that occurs during the five minute period of the assay. Inhibition of aggregation was calculated as the maximum aggregation observed in the presence of inhibitor, compared to that in the absence of inhibitor. IC50s were derived by non-linear regression analysis using the Prism software (GraphPad, San Diego, Calif.).
Inhibition of ADP-dependent aggregation was also determined in 96-well flat-bottom microtiter plates using a microtiter plate shaker and plate reader similar to the procedure described by Frantantoni et al., Am. J. Clin. Pathol. 94, 613 (1990). All steps are performed at room temperature. For 96-well plate aggregation using platelet-rich plasma (PRP), the total reaction volume of 0.2 ml/well includes 180 μl of PRP (˜3×10^8 platelets/ml, see above), 6 μl of either serial dilution of test compounds in 20% DMSO or buffer (for control wells), and 10 μl of 20×ADP agonist solution (100 μM). The OD of the samples is then determined at 450 nm using a microtiter plate reader (Softmax, Molecular Devices, Menlo Park, Calif.) resulting in the 0 minute reading. The plates are then agitated for 5 min on a microtiter plate shaker and the 5 minute reading is obtained in the plate reader. Aggregation is calculated from the decrease of OD at 450 nm at t=5 minutes compared to t=0 minutes and is expressed as % of the decrease in the ADP control samples after correcting for changes in the unaggregated control samples. IC50s were derived by non-linear regression analysis.

T1 sequence (Q9H244 whole entry): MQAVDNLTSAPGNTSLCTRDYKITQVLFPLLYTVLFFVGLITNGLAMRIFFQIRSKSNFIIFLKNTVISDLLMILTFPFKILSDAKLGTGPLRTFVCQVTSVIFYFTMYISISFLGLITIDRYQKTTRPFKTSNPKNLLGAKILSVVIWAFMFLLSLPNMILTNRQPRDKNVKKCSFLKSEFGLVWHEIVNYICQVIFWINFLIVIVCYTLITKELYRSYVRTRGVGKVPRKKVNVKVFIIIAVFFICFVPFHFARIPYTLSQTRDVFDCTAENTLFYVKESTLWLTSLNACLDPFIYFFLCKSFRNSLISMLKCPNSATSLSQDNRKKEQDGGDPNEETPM

Row | Structure (SMILES) | pIC50 (P2Y12 receptor) | pIC50 [1]
1 | CNc1cc2ccn(-c3ccc(C(=O)NC(c4nnn[nH]4)c4ccc(Cl)s4)cc3)c(=O)c2cc1F (stereo not drawn) [Compound 91, N-((5-chlorothiophen-2-yl)(1H-tetrazol-5-yl)methyl)-4-(7-fluoro-6-(methylamino)-1-oxoisoquinolin-2(1H)-yl)benzamide] | > 7.30 | 4.52 to 5.00
2 | CNc1cc2c(cc1F)C(=O)N(c1ccc(C(=O)NC(c3nnn[nH]3)c3ccc(Cl)s3)cc1)CO2 (stereo not drawn) [Compound 54, N-((5-chlorothiophen-2-yl)(1H-tetrazol-5-yl)methyl)-4-(6-fluoro-7-(methylamino)-4-oxo-2H-benzo[e][1,3]oxazin-3(4H)-yl)benzamide] | > 7.30 | 4.52 to 5.00
3 | CNc1cc2c(cc1F)C(=O)N(c1ccc(C(=O)NC(c3nnn[nH]3)c3ccc(C)s3)cc1)CO2 (stereo not drawn) [Compound 61, 4-(6-fluoro-7-(methylamino)-4-oxo-2H-benzo[e][1,3]oxazin-3(4H)-yl)-N-((5-methylthiophen-2-yl)(1H-tetrazol-5-yl)methyl)benzamide] | > 7.30 | 4.52 to 5.00
4 | CNc1cc2c(cc1F)C(=O)N(c1ccc(C(=O)NC(c3ccc(Cl)s3)c3nccs3)cc1)CO2 (stereo not drawn) [Compound 82, N-((5-chlorothiophen-2-yl)(thiazol-2-yl)methyl)-4-(6-fluoro-7-(methylamino)-4-oxo-2H-benzo[e][1,3]oxazin-3(4H)-yl)benzamide] | 6.30 to 7.30 | < 4.52
5 | CNc1cc2c(cc1F)C(=O)N(c1ccc(C(=O)NC(c3cccc(Cl)c3)c3nnn[nH]3)cc1)CO2 (stereo not drawn) [Compound 80, N-((3-chlorophenyl)(1H-tetrazol-5-yl)methyl)-4-(6-fluoro-7-(methylamino)-4-oxo-2H-benzo[e][1,3]oxazin-3(4H)-yl)benzamide] | 6.30 to 7.30 | < 4.52
6 | CNc1cc2[nH]c(=O)n(-c3ccc(C(=O)NC(C(=O)O)c4ccc(C)s4)cc3)c(=O)c2cc1F (stereo not drawn) [Compound 19, 2-(4-(6-fluoro-7-(methylamino)-2,4-dioxo-1,2-dihydroquinazolin-3(4H)-yl)benzamido)-2-(5-methylthiophen-2-yl)acetic acid] | 6.30 to 7.30 | > 5.00
7 | CNc1cc2c(cc1F)C(=O)N(c1ccc(C(=O)NC(C(=O)O)c3ccc(Cl)s3)cc1)CO2 (stereo not drawn) [Compound 56, 2-(5-chlorothiophen-2-yl)-2-(4-(6-fluoro-7-(methylamino)-4-oxo-2H-benzo[e][1,3]oxazin-3(4H)-yl)benzamido)acetic acid] | > 7.30 | 4.52 to 5.00
8 | CNc1cc2[nH]c(=O)n(-c3ccc(C(=O)N(CC(=O)O)Cc4ccc(Cl)s4)cc3)c(=O)c2cc1F [Compound 6, 2-(N-((5-chlorothiophen-2-yl)methyl)-4-(6-fluoro-7-(methylamino)-2,4-dioxo-1,2-dihydroquinazolin-3(4H)-yl)benzamido)acetic acid] | 6.30 to 7.30 | < 4.52
9 | O=C(NCc1ccc(Cl)s1)c1ccc(-n2c(=O)[nH]c3cc(NCc4ccc(F)cc4)ccc3c2=O)cc1 [Compound 1, N-((5-chlorothiophen-2-yl)methyl)-4-(7-(4-fluorobenzylamino)-2,4-dioxo-1,2-dihydroquinazolin-3(4H)-yl)benzamide] | 6.30 to 7.30 | < 4.52
10 | CNc1cc2c(cc1F)C(=O)N(c1ccc(CNC(C(=O)O)c3ccc(Cl)s3)cc1)CO2 (stereo not drawn) [Compound 105, 2-(5-chlorothiophen-2-yl)-2-(4-(6-fluoro-7-(methylamino)-4-oxo-2H-benzo[e][1,3]oxazin-3(4H)-yl)benzylamino)acetic acid] | 6.30 to 7.30 | < 4.52
11 | CNc1cc2ccn(-c3ccc(C(=O)NC(C(=O)O)c4ccc(Cl)s4)cc3)c(=O)c2cc1F (stereo not drawn) [Compound 90, 2-(5-chlorothiophen-2-yl)-2-(4-(7-fluoro-6-(methylamino)-1-oxoisoquinolin-2(1H)-yl)benzamido)acetic acid] | > 7.30 | 4.52 to 5.00
12 | CNc1cc2ccn(-c3ccc(CNC(C(=O)O)c4ccc(Cl)s4)cc3)c(=O)c2cc1F (stereo not drawn) [Compound 115, 2-(5-chlorothiophen-2-yl)-2-(4-(7-fluoro-6-(methylamino)-1-oxoisoquinolin-2(1H)-yl)benzylamino)acetic acid] | 6.30 to 7.30 | < 4.52
13 | CNc1cc2[nH]c(=O)n(-c3ccc(C(=O)N[C@H](c4noc(=O)[nH]4)c4ccc(Cl)s4)cc3)c(=O)c2cc1F [Compound 46, (R)-N-((5-chlorothiophen-2-yl)(5-oxo-4,5-dihydro-1,2,4-oxadiazol-3-yl)methyl)-4-(6-fluoro-7-(methylamino)-2,4-dioxo-1,2-dihydroquinazolin-3(4H)-yl)benzamide] | 6.30 to 7.30 | 4.52 to 5.00
14 | CNc1cc2[nH]c(=O)n(-c3ccc(C(=O)NC(CC(=O)O)c4ccc(Cl)s4)cc3)c(=O)c2cc1F (stereo not drawn) [Compound 27, 3-(5-chlorothiophen-2-yl)-3-(4-(6-fluoro-7-(methylamino)-2,4-dioxo-1,2-dihydroquinazolin-3(4H)-yl)benzamido)propanoic acid] | 6.30 to 7.30 | < 4.52
15 | CNc1cc2c(cc1F)C(=O)N(c1ccc(C(=O)NC(c3noc(=O)[nH]3)c3ccc(Cl)s3)cc1)CO2 (stereo not drawn) [Compound 71, N-((5-chlorothiophen-2-yl)(5-oxo-4,5-dihydro-1,2,4-oxadiazol-3-yl)methyl)-4-(6-fluoro-7-(methylamino)-4-oxo-2H-benzo[e][1,3]oxazin-3(4H)-yl)benzamide] | > 7.30 | 4.52 to 5.00
16 | CNc1cc2c(cc1F)C(=O)N(c1ccc(C(=O)NC(c3noc(=S)[nH]3)c3ccc(Cl)s3)cc1)CO2 (stereo not drawn) [Compound 75, N-((5-chlorothiophen-2-yl)(5-thioxo-4,5-dihydro-1,2,4-oxadiazol-3-yl)methyl)-4-(6-fluoro-7-(methylamino)-4-oxo-2H-benzo[e][1,3]oxazin-3(4H)-yl)benzamide] | > 7.30 | 4.52 to 5.00
17 | CNc1cc2c(cc1F)C(=O)N(c1ccc(C(=O)NC(C(=O)O)c3cccc(Cl)c3)cc1)CO2 (stereo not drawn) [Compound 81, 2-(3-chlorophenyl)-2-(4-(6-fluoro-7-(methylamino)-4-oxo-2H-benzo[e][1,3]oxazin-3(4H)-yl)benzamido)acetic acid] | 6.30 to 7.30 | < 4.52
18 | CNc1cc2c(cc1F)C(=O)N(c1ccc(C(=O)NC(CC(=O)O)c3ccc(Cl)s3)cc1)CO2 (stereo not drawn) [Compound 79, 3-(5-chlorothiophen-2-yl)-3-(4-(6-fluoro-7-(methylamino)-4-oxo-2H-benzo[e][1,3]oxazin-3(4H)-yl)benzamido)propanoic acid] | 6.30 to 7.30 | > 5.00
19 | CNc1cc2c(cc1F)C(=O)N(c1ccc(C(=O)N(CC(=O)O)Cc3ccc(Cl)s3)cc1)CO2 [Compound 55] | 6.30 to 7.30 | < 4.52
20 | CNc1cc2c(cc1F)C(=O)N(c1ccc(CNC(CC(=O)O)c3ccc(Cl)s3)cc1)CO2 (stereo not drawn) [Compound 106, 3-(5-chlorothiophen-2-yl)-3-(4-(6-fluoro-7-(methylamino)-4-oxo-2H-benzo[e][1,3]oxazin-3(4H)-yl)benzylamino)propanoic acid] | 6.30 to 7.30 | < 4.52
21 | CNc1cc2[nH]c(=O)n(-c3ccc(C(=O)NC(C(N)=O)c4ccc(Cl)s4)cc3)c(=O)c2cc1F (stereo not drawn) [Compound 47, N-(2-amino-1-(5-chlorothiophen-2-yl)-2-oxoethyl)-4-(6-fluoro-7-(methylamino)-2,4-dioxo-1,2-dihydroquinazolin-3(4H)-yl)benzamide] | 6.30 to 7.30 | > 5.00
